#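 Five compound concentrations were applied to cells in 96-well plates for 48 hours; endpoints were derived by simple linear interpolation of the resulting dose-response curve. GI50 marks 50% less growth. TGI: concentration producing complete growth inhibition.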
# Columns and labels:
# Assay in all cases: NCI anticancer screen, dose series, 48 h
# U251 CNS = system: U251 CNS
# DU-145 prostate = system: DU-145 prostate
# NCI-H23 lung = system: NCI-H23 lung
# UACC-257 melanoma = system: UACC-257 melanoma
# HOP-62 NSCLC = system: HOP-62 NSCLC
# TK-10 renal = system: TK-10 renal
# K-562 leukemia = system: K-562 leukemia
# COLO 205 colon = system: COLO 205 colon
# LOX IMVI melanoma = system: LOX IMVI melanoma
# SK-OV-3 ovarian = system: SK-OV-3 ovarian
Structure (SMILES),TGI (U251 CNS),TGI (DU-145 prostate),TGI (NCI-H23 lung),TGI (UACC-257 melanoma),TGI (HOP-62 NSCLC),TGI (TK-10 renal),TGI (K-562 leukemia),TGI (COLO 205 colon),TGI (LOX IMVI melanoma),TGI (SK-OV-3 ovarian),GI50 (U251 CNS),GI50 (DU-145 prostate),GI50 (NCI-H23 lung),GI50 (UACC-257 melanoma),GI50 (HOP-62 NSCLC),GI50 (TK-10 renal),GI50 (K-562 leukemia),GI50 (COLO 205 colon),GI50 (LOX IMVI melanoma),GI50 (SK-OV-3 ovarian)
O=C1OC(c2ccc(O)c(-c3ccccc3)c2)(c2ccc(O)c(-c3ccccc3)c2)c2c(Cl)c(Cl)c(Cl)c(Cl)c21,> 100 µM,> 100 µM,> 100 µM,> 100 µM,> 100 µM,> 100 µM,> 100 µM,> 100 µM,> 100 µM,> 100 µM,–,–,–,–,–,–,–,–,–,–
CN1CCN(c2ccc3nc(-c4cc(C(C)(C)C)c(O)c(C(C)(C)C)c4)[nH]c3c2)CC1,8.59 µM,16 µM,10.3 µM,3.97 µM,5 µM,17.2 µM,4.97 µM,4.26 µM,3.41 µM,21.8 µM,2920 nM,4.66 µM,3.31 µM,2 µM,2290 nM,4.79 µM,1940 nM,2020 nM,1830 nM,8830 nM
C#C[C@]1(O)CC[C@H]2[C@@H]3CC=C4c5sc(N=C(N)N)nc5CC[C@]4(C)[C@H]3CC[C@@]21C,1.85 µM,2.67 µM,2.92 µM,1.4 µM,2.62 µM,3.44 µM,1.35 µM,2.24 µM,1.63 µM,2.33 µM,388 nM,1.19 µM,1.26 µM,0.369 µM,984 nM,1.85 µM,354 nM,667 nM,443 nM,1050 nM
COc1ccc(-c2n[nH]nc2-c2csc3ccccc23)cc1OC,11.4 µM,> 100 µM,27.9 µM,55.6 µM,24.3 µM,19.8 µM,> 100 µM,11.7 µM,15.7 µM,19.3 µM,2190 nM,3.77 µM,3.93 µM,10.9 µM,2180 nM,2.98 µM,516 nM,2820 nM,3040 nM,2370 nM
CS(=O)(=O)CCNCc1ccc(-c2ccc3ncnc(Nc4ccc(OCc5cccc(C(F)(F)F)c5)cc4)c3c2)o1,9.51 µM,> 22.6 µM,15.7 µM,7.49 µM,16.6 µM,11.1 µM,15 µM,> 15.5 µM,9.32 µM,> 25 µM,4220 nM,6.98 µM,5.93 µM,3.79 µM,6530 nM,3.17 µM,3180 nM,6830 nM,4530 nM,9250 nM
COc1cnc2c(c1)C(=O)c1c-2n(CCCn2ccnc2)c(=O)c2cc(Cl)ccc12,0.119 µM,> 100 µM,0.505 µM,1.91 µM,0.0879 µM,> 100 µM,> 100 µM,2.09 µM,0.116 µM,0.303 µM,14.4 nM,0.0432 µM,0.0382 µM,0.0904 µM,21.1 nM,0.744 µM,34.7 nM,33.2 nM,19.8 nM,40.3 nM
CCCCCCCCCCCCCCCc1cc(O)ccc1N,> 100 µM,> 100 µM,> 100 µM,> 80.1 µM,> 100 µM,> 100 µM,> 38 µM,> 62.5 µM,9.41 µM,> 76.4 µM,> 80200 nM,> 100 µM,> 96.2 µM,11.3 µM,> 100000 nM,> 63 µM,10700 nM,> 9960 nM,1390 nM,31700 nM
Cn1c(COC(=O)N2CCCCC2)nc2c(N3CCOCC3)nc(-c3ccccc3)nc21,2.81 µM,2.31 µM,3.11 µM,2.67 µM,3.21 µM,2.66 µM,6.7 µM,2.63 µM,0.337 µM,10.5 µM,1370 nM,1.01 µM,1.48 µM,1.22 µM,1420 nM,1.35 µM,364 nM,1030 nM,166 nM,2640 nM
O=C(Nc1cc(C(F)(F)F)ccc1F)Nc1n[nH]c2ccccc12,> 100 µM,> 100 µM,> 100 µM,> 100 µM,> 100 µM,> 100 µM,> 100 µM,> 100 µM,> 100 µM,> 100 µM,> 100000 nM,> 100 µM,> 100 µM,> 100 µM,> 100000 nM,> 100 µM,> 100000 nM,> 100000 nM,> 100000 nM,> 100000 nM
COc1cc(CSc2nc3ccc(C)cc3c(=O)n2Cc2ccccc2)cc(OC)c1OC,20.8 µM,20.4 µM,> 100 µM,> 100 µM,21.4 µM,47.9 µM,> 100 µM,3.13 µM,> 100 µM,17.8 µM,3200 nM,3.14 µM,4.4 µM,6.73 µM,3210 nM,6.47 µM,624 nM,1050 nM,4660 nM,2860 nM
CC(ONC(=O)c1cc(C(F)(F)F)cc(C(F)(F)F)c1)C(=O)Nc1ccc(Cl)cc1 (stereo not given),> 50.5 µM,> 100 µM,10.6 µM,20.1 µM,24.6 µM,> 75.1 µM,> 45.5 µM,25.8 µM,14 µM,> 85.8 µM,4610 nM,11.5 µM,3.55 µM,3.83 µM,8450 nM,5.42 µM,5750 nM,5320 nM,4020 nM,12900 nM
O=C(O)C1C2CC3C(OC(=O)C31)C2Br (stereo not given),> 100 µM,> 100 µM,> 100 µM,> 100 µM,> 100 µM,> 100 µM,> 88.9 µM,> 100 µM,> 100 µM,> 100 µM,–,–,–,–,–,–,–,–,–,–
